According to US11925690B2, “Bifunctional molecules for targeting Rpn11” (AMPHISTA THERAPEUTICS LTD, priority 2018, dated 2024):

Columns and labels:
[1] = target: T1, Brd4 (L) (Homo sapiens, UniProt O60885); assay: Concentration-dependent BET degradation, immunoblot; format: cell-based; conditions: 4 h, 1 nM-10 μM
T1 construct: endogenous in cells; host or cells: HEK293 (CRL-1573), HeLa (CCL-2)
Description: (§1) Immunoblotting. Proteins were separated by SDS-PAGE on NuPage 4-12% Bis-Tris gels, followed by transfer to Amersham Protran 0.45 NC nitrocellulose membrane (GE Healthcare) using wet transfer. Membranes were blocked using 5% w/v milk in Tris-buffered saline (TBS) with 0.1% Tween-20. Blots were probed (overnight at 4 °C) using anti-Brd2 (Abcam ab139690, 1:2,000 dilution), anti-Brd3 (Abcam ab50818, 1:500 dilution), and anti-Brd4 (Abcam ab128874, 1:1,000 dilution) primary antibodies, as appropriate. The next day, blots were washed with TBST and incubated (1 h at Room temperature) with anti-Tubulin hFAB-rhodamine (BioRad, 12004166) primary antibody, and either anti-rabbit IRDye 800CW (Licor 1:1,000 dilution) or anti-mouse IRDye 800CW (Licor 1:1,000 dilution) secondary antibody. Blots were developed using a Bio-Rad ChemiDoc MP Imaging System, and band quantification was performed using Image Studio software (LiCor). Band intensities were normalized to the tubulin loading control and reported as % of the average 0.1% DMSO vehicle intensity. Degradation data was plotted and analysed using Prism (Graphpad, version 8).
(§2) HeLa (5×10^5) and HEK293 (1×10^6) cells were seeded in standard 6-well plates (2 mL medium) overnight before treatment with compounds at the desired concentration (1 nM-10 μM), with a final DMSO concentration of 0.1% v/v. After 4 h treatment time, cells were washed with DPBS (Gibco) and lysed using 85 μL RIPA buffer (Sigma-Aldrich) supplemented with cOmplete Mini EDTA-free protease inhibitor cocktail (Roche) and benzonase. Lysates were clarified by centrifugation (20000 g, 10 min, 4° C.) and the total protein content of the supernatant was quantified using a Bradford colorimetric assay. Samples were prepared using equal amounts of total protein and LDS sample buffer (Invitrogen). Band intensities were normalized to the tubulin loading control and reported as % of the average 0.1% DMSO vehicle intensity. Degradation data was plotted and analysed using Prism (Graphpad, version 8).
(§3) MZ1 and 11JQ17 were used at 1 μM for positive and negative controls, respectively. […] For the table, Dmax: +(Dmax≤25%); ++(26%≤Dmax≤50%); +++(51%≤Dmax≤70%); ++++(71%≤DC50: A (DC50≤50 nM); B (51 nM≤DC50≤500 nM); C (501 nM≤DC50).

[2] = target: T2, Brd4 (S) (Homo sapiens, UniProt O60885); assay: as above; format: cell-based; conditions: 4 h, 1 nM-10 μM
T2 construct: endogenous in cells; host or cells: HEK293 (CRL-1573), HeLa (CCL-2)
Description: as §1, §2, §3

[3] = target: T3, Brd2 (Homo sapiens, UniProt P25440); assay: Time-dependent BET degradation, immunoblot; format: cell-based; conditions: HEK293, Brd2, 1 μM
T3 sequence (P25440 whole entry): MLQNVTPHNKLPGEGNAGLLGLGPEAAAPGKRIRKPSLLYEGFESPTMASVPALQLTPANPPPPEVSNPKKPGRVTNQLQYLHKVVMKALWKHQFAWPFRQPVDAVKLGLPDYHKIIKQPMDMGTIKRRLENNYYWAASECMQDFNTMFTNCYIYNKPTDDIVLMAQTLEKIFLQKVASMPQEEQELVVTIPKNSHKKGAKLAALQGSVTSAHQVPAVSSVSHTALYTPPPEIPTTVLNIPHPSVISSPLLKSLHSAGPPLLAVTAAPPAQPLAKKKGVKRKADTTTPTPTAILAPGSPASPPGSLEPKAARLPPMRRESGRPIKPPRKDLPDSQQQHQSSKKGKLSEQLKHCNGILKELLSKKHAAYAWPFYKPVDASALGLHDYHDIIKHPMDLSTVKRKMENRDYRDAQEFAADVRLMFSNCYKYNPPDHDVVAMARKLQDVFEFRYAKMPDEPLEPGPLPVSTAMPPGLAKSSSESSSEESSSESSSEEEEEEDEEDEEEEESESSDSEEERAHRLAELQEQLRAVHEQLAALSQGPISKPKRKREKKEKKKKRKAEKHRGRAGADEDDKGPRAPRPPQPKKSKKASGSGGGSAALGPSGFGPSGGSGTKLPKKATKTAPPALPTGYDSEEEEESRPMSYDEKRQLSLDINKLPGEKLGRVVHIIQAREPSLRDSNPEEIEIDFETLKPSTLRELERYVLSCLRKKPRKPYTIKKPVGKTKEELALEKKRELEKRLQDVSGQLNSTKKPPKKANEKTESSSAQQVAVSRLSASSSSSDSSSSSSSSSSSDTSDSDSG
Description: as §1
as §2, with “HEK293” for “HeLa (5×10^5) and HEK293”, “(0.5×10^6)” for “(1×10^6)”, “1 μM concentration,” for “the desired concentration (1 nM-10 μM),”, “incubation for the desired time (0-24 hrs),” for “4 h treatment time,”, “complete” for “cOmplete”
(§4) MZ1 and 11JQ17 were used at 1 μM (4 h) for positive and negative controls, respectively. […]

[4] = target: T4, Brd3 (Homo sapiens, UniProt Q15059); assay: Time-dependent BET degradation, immunoblot; format: cell-based; conditions: HEK293, Brd3, 1 μM
T4 sequence (Q15059 whole entry): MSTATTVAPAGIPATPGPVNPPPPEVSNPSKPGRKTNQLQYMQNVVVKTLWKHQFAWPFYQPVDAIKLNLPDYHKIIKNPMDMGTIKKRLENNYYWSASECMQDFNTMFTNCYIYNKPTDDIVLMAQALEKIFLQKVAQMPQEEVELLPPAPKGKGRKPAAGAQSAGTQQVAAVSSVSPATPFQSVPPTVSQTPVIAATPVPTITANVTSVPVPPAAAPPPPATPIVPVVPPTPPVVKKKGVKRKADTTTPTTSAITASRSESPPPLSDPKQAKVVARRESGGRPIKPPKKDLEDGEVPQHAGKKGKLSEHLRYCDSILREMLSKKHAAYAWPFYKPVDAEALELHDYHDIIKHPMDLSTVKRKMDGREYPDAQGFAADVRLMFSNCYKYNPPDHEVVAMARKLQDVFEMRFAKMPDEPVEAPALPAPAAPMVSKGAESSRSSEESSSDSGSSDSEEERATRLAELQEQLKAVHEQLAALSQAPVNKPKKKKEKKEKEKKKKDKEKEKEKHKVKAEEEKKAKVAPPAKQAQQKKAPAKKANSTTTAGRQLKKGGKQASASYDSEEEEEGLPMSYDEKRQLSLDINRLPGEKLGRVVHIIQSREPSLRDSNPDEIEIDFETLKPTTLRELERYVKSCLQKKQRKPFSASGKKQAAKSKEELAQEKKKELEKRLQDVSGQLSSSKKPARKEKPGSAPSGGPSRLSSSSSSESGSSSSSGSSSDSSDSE
Description: as §1
as §2, with “HEK293” for “HeLa (5×10^5) and HEK293”, “(0.5×10^6)” for “(1×10^6)”, “1 μM concentration,” for “the desired concentration (1 nM-10 μM),”, “incubation for the desired time (0-24 hrs),” for “4 h treatment time,”, “complete” for “cOmplete”
as §4

[5] = target: T1, Brd4 (L); assay: Time-dependent BET degradation, immunoblot; format: cell-based; parameters: Dmax: dose or concentration left out as unconfirmed; conditions: HEK293, Brd4 (L)
Description: as §1
as §2, with “HEK293” for “HeLa (5×10^5) and HEK293”, “(0.5×10^6)” for “(1×10^6)”, “1 μM concentration,” for “the desired concentration (1 nM-10 μM),”, “incubation for the desired time (0-24 hrs),” for “4 h treatment time,”, “complete” for “cOmplete”
as §4

[6] = target: T2, Brd4 (S); assay: Time-dependent BET degradation, immunoblot; format: cell-based; parameters: Dmax: dose or concentration left out as unconfirmed; conditions: HEK293, Brd4 (S)
Description: as §1
as §2, with “HEK293” for “HeLa (5×10^5) and HEK293”, “(0.5×10^6)” for “(1×10^6)”, “1 μM concentration,” for “the desired concentration (1 nM-10 μM),”, “incubation for the desired time (0-24 hrs),” for “4 h treatment time,”, “complete” for “cOmplete”
as §4

[7] = target: T3, Brd2; assay: Concentration-dependent BET degradation, immunoblot; format: cell-based; parameters: endogenous in cells; host or cells: HEK293 (CRL-1573), HeLa (CCL-2); conditions: 1 nM-10 μM
Description: as §1, §2, §3

[8] = target: T4, Brd3; assay: as above; format: cell-based; parameters: endogenous in cells; host or cells: HEK293 (CRL-1573), HeLa (CCL-2); conditions: 1 nM-10 μM
Description: as §1, §2, §3

[9] = target: T5, Brd4 (Homo sapiens, UniProt O60885); assay: Immunoblot analysis of Brd4 in HEK293 cells (prodrug activity, negative SAR); format: cell-based; conditions: HEK293, 1 μM, 4 h, n=3
T5 construct: immunoblot analysis of Brd4 following 4 h treatment of HEK293 cells; endogenous in cells; host or cells: HEK293 (CRL-1573)
Description: as §1, with “8). […]” for “8).”
HEK293 (1×10^6) cells incubated with DMSO, 1 μM 11JQ15 or 1 μM 11JQ17 for 4 h with a final DMSO concentration of 0.1% v/v. […] Degradation data was plotted and analysed using Prism (Graphpad, version 8), where bars are mean±SEM of three independent experiments.

[10] = system: HEK293 cells; assay: Unbiased whole proteome analysis by TMT-labelling MS; format: cell-based; conditions: HEK293, 1 μM, 4 h, n=3
Description: HEK293 (2.2×10 6) cells were seeded in 10 cm plates (10 mL medium) overnight before treatment with 1 μM compound for a final DMSO concentration of 0.1% v/v. After 4 h incubation time, cells were washed with 2× with DPBS (Gibco) and lysed using 500 μL lysis buffer (100 mM Tris, 4% (w/v) SDS, pH 8.0) supplemented with cOmplete Mini EDTA-free protease inhibitor cocktail (Roche) and benzonase. Lysates were briefly sonicated (2×10 s), clarified by centrifugation (20000 g, 10 min, 4° C.) and the total protein content of the supernatant was quantified using a BCA assay (Thermo Fisher Scientific).
Sample processing, digestion, desalting, labelling, and fractionation were performed at Fingerprint Proteomics (University of Dundee) as described previously [Gadd et al. 10.1038/nchembio.2329]. FIG. 7 depicts fold change of abundance of 7882 proteins comparing 11JQ15 to DMSO treatment (left) and comparing 1 μM 11JQ17 to DMSO treatment (right), as well as their respective p-values (t-test; n=3).

[11] = target: T5, Brd4; assay: Mechanistic evaluation: Brd4 degradation after inhibitor pre-treatment; format: cell-based; conditions: HEK293, 1 μM degrader 4 h
Description: HeLa (5×10^5) and HEK293 (1×10^6) cells were seeded in standard 6-well plates (2 mL medium) overnight before pre-treatment with inhibitors (10 μM bortezomib, 10 μM capzimin, 10 μM JQ1). After a 0.5 h pre-incubation time, cells were subsequently treated with vehicle, 1 μM MZ1 or 1 μM 11JQ15, yielding a final overall DMSO concentration of 0.2% v/v. After 4 h incubation, cells were washed with DPBS (Gibco) and lysed using 85 μL RIPA buffer (Sigma-Aldrich) supplemented with cOmplete Mini EDTA-free protease inhibitor cocktail (Roche) and benzonase. Lysates were clarified by centrifugation (20000 g, 10 min, 4° C.) and the total protein content of the supernatant was quantified using a Bradford colorimetric assay. Samples were prepared using equal amounts of total protein and LDS sample buffer (Invitrogen).
Brd4 band intensities were normalized to tubulin loading control and reported in FIG. 6B as % of the average 0.1% DMSO vehicle intensity. Each bar is mean±SEM of three independent experiments performed in duplicate (n=3).

[12] = system: human cancer cell lines; conditions: cited from earlier work
[13] = time to deplete 50% of the protein relative to DMSO
[14] = 1 μM, time to deplete 50% of the protein relative to DMSO
[15] = 1 μM, time to reach 50% of the Dmax

Compound	DC50 ([1]; HEK293, Brd4 (L)) [µM]	Dmax ([1]; HEK293, Brd4 (L)) [%]	DC50 ([1]; HeLa) [µM]	Dmax ([1]; HeLa) [%]	DC50 ([2]; HEK293, Brd4 (S)) [µM]	Dmax ([2]; HEK293, Brd4 (S)) [%]	DC50 ([2]; HeLa) [µM]	Dmax ([2]; HeLa) [%]	DC50 ([7]; HEK293, Brd2, 4 h) [µM]	Dmax ([7]; HEK293, Brd2, 4 h) [%]	DC50 ([7]; HeLa, Brd2, 4 h) [µM]	Dmax ([7]; HeLa, Brd2, 4 h) [%]	DC50 ([8]; HEK293, Brd3, 4 h) [µM]	Dmax ([8]; HEK293, Brd3, 4 h) [%]	DC50 ([8]; HeLa, Brd3, 4 h) [µM]	Dmax ([8]; HeLa, Brd3, 4 h) [%]	other results
Cc1sc2c(c1C)C(c1ccc(Cl)cc1)=N[C@@H](CC(=O)NCCCCNC(=O)c1cc(S)c3ncc(C(=O)NCc4ccc(F)cc4)cc3c1)c1nnc(C)n1-2 [Example 11JQ12]	0.051 to 0.5	≥ 71	≥ 0.501	≥ 71	0.051 to 0.5	≥ 71	≥ 0.501	≥ 71	≥ 0.501	26 to 50	≥ 0.501	26 to 50	≥ 0.501	26 to 50	≥ 0.501	≤ 25	–
Cc1ncsc1-c1ccc(CNC(=O)[C@@H]2C[C@@H](O)CN2C(=O)[C@@H](NC(=O)COCCOCCOCCNC(=O)C[C@@H]2N=C(c3ccc(Cl)cc3)c3c(sc(C)c3C)-n3c(C)nnc32)C(C)(C)C)cc1 [MZ1, reference compound]	–	–	–	–	–	–	–	–	–	–	–	–	–	–	–	–	Brd4 degradation in the presence of JQ1 ([11]; 10 μM JQ1 pre-treatment 0.5 h): blocked; Brd4 degradation in the presence of bortezomib ([11]; 10 μM bortezomib pre-treatment 0.5 h): blocked; Brd4 degradation in the presence of capzimin ([11]; 10 μM capzimin pre-treatment 0.5 h): only blocked by bortezomib and JQ1
Cn1c(COP(=O)(NCCBr)NCCBr)cnc1[N+](=O)[O-] [TH-302, (1-methyl-2-nitro-1H-imidazole5-yl) N, N0-bis (2-bromoethyl) diamidophosphate]	–	–	–	–	–	–	–	–	–	–	–	–	–	–	–	–	cytotoxic potency ([12]; hypoxic conditions): greatly enhanced cytotoxic potency; cytotoxic activity ([12]; normoxic conditions): little cytotoxic activity

Continued, in another order:

DC50 ([1]; HEK293, Brd4 (L)) [µM]	Dmax ([1]; HEK293, Brd4 (L)) [%]	DC50 ([1]; HeLa) [µM]	Dmax ([1]; HeLa) [%]	DC50 ([2]; HEK293, Brd4 (S)) [µM]	Dmax ([2]; HEK293, Brd4 (S)) [%]	DC50 ([2]; HeLa) [µM]	Dmax ([2]; HeLa) [%]	DC50 ([7]; HEK293, Brd2, 4 h) [µM]	Dmax ([7]; HEK293, Brd2, 4 h) [%]	DC50 ([7]; HeLa, Brd2, 4 h) [µM]	Dmax ([7]; HeLa, Brd2, 4 h) [%]	DC50 ([8]; HEK293, Brd3, 4 h) [µM]	Dmax ([8]; HEK293, Brd3, 4 h) [%]	DC50 ([8]; HeLa, Brd3, 4 h) [µM]	Dmax ([8]; HeLa, Brd3, 4 h) [%]	Compound	other results
0.051 to 0.5	≥ 71	0.051 to 0.5	≥ 71	0.051 to 0.5	≥ 71	0.051 to 0.5	≥ 71	0.051 to 0.5	≥ 71	0.051 to 0.5	26 to 50	≥ 0.501	51 to 70	≥ 0.501	51 to 70	Cc1sc2c(c1C)C(c1ccc(Cl)cc1)=N[C@@H](CC(=O)NCCOCCNC(=O)c1cc(S)c3ncc(C(=O)NCCc4nccs4)cc3c1)c1nnc(C)n1-2 [Example 11JQ1]	Dmax at 1 µM ([3]; 0-24 hrs): 60%; Abs. T1/2 [3, 13]: 3.5 h; T1/2 ([3]; time to reach 50% of the Dmax): 1.0 h; Dmax at 1 µM ([4]; 0-24 hrs): 90%; Abs. T1/2 [4, 13]: 3.5 h; T1/2 ([4]; time to reach 50% of the Dmax): 2.7 h; Dmax ([5]; 0-24 hrs): 95%; Abs. T1/2 [5, 14]: 1.7 h; T1/2 [5, 15]: 1.6 h; Dmax ([6]; 0-24 hrs): 95%; Abs. T1/2 [6, 14]: 1.9 h; T1/2 [6, 15]: 2 h
–	≤ 25	–	≤ 25	–	≤ 25	–	≤ 25	–	≤ 25	–	≤ 25	–	≤ 25	–	≤ 25	Cc1sc2c(c1C)C(c1ccc(Cl)cc1)=N[C@@H](CC(=O)NCCOCCNC(=O)c1cc(SC(C)(C)C)c3ncc(C(=O)NCCc4nccs4)cc3c1)c1nnc(C)n1-2 [Example 11JQ17]	Brd4 levels (FIG. 3) [9]: minimal depletion; fold change of abundance of 7882 proteins vs DMSO (FIG. 7) [10]: does not show any BET depletion
